Measured values published in US9682988B2, “Solid salt form of α-6-mPEG6-O-hydroxycodone as opioid agonists and uses thereof” (Nektar Therapeutics, priority 2012, dated 2017).

How the values were obtained:
Format in all cases: physicochemical
[1] = Water vapor sorption; conditions: phosphate salt
Method: Moisture sorption/desorption data were collected on a VTI SGA-1 00 Vapor Sorption Analyzer. Sorption and desorption data were collected over a range of 5% to 95% relative humidity (RH) at 10% RH intervals under a nitrogen purge. Samples were not dried prior to analysis. Equilibrium criteria used for analysis were less than 0.0100% weight change in 5 minutes, with a maximum equilibration time of 3 hours if the weight criterion was not met. Data were not corrected for the initial moisture content of the samples. NaCl and PVP were used as calibration standards.

[2] = Particle size distribution (Malvern Mastersizer); conditions: ethyl acetate dispersant; phosphate salt
Method: (§1) 27.22 g of freebase alpha-6-mPEG6-O-hydroxycodone was added to a 250 mL jacketed flask. The flask was equipped with a nitrogen inlet, mechanical stirrer and temperature probe connected to a digital read-out. 163 mL of tBME (methyl tert-butyl ether):heptane (5:1 vol:vol) was added to make a homogeneous solution at 15° C. Aqueous phosphoric acid (3103 μL of 85+%) was added over 1 hr at 10 minutes intervals. During the first addition, the initially formed solids were long strings and agitation helped to transform fine solid in matter of seconds. Exothermic temperature spikes occurred; the range of these increases was 8-10° C. observed during the initial 5 added portions. During the 6th and 7th added portion the temperature spike was reduced substantially to increments of a Celsius degree. After 2 hours the slurry was filtered. The filtration rate was instantaneous with no solvent retention. The wet cake was washed with 90 mL tBME (2×45 mL) and set to dry at ambient temperature overnight inside a vacuum oven. The isolated 30.57 g of white solid (96.5% isolated yield) was filtered. The solid after delumping with spatula was free flowing. The % LOD of the wet cake was at 43.2%. HPLC purity was at 98.6%. Bulk density was 0.3276 g/mL, tap density was 0.3931 g/mL, and the Hausner ratio was 1.20. XRPD conformed to the salt prepared according to Example 3. FIG. 16 depicts various XRPD scans for the salt prepared according to Example 7 on a 30 g, 100 g, and 520 g scale and a salt prepared according to Example 3 on a 100 g scale. XRPD patterns were obtained using a Bruker D8 Advance equipped with a Cu Kα radiation source (1.54 Å), a 9-position sample holder and a LYNXEYE Super Speed Detector. Typically, the duration of each scan was 180 seconds and the 2θ range was 4 to 40°. Samples were placed on zero-background, silicon plate holders. DSC data were collected using a TA Instruments Q10 DSC. Typically, samples (˜2 mg) were placed in hermetic alodined aluminum sample pans and scanned from 30 to 350° C. at a rate of 10° C./min under a nitrogen purge of 50 mL/min. A Malvern Hydro 2000 SM (A) Mastersizer was used for particle size analysis data using a generic method. Ethyl acetate was used as the dispersant, with a pump speed of 2000 rpm, obstruction of 10-15%. The addition style included direct addition of the solid to the dispersant until desired obstruction is achieved. The number of measurements was a minimum of two. For PSD analysis, a sample was taken from the bulk of the solid. FIGS. 13, 14, and 15 are plots of the PSD analysis for the 30 g, 100 g, and 520 g lots respectively.

[3] = Bulk and tap density of the solid salt
Method: as §1

[4] = Description of the isolated solid (hygroscopicity); conditions: after drying under vacuum at ambient temperature
Method: A solution of α-6-mPEG6-O-hydroxycodone was prepared in a mixture of methanol and tert-butyl methyl ether (2:1, 2 volumes) at 30° C. A solution of phosphoric acid (85% aqueous, 1.05 eq) was prepared in a mixture of methanol and tert-butyl methyl ether (2:1, 1.2 volumes) at 20° C. The solutions were combined, maintaining a temperature of 30-50° C., resulting in the formation of dissolved α-6-mPEG6-O-hydroxycodone phosphate. This salt solution was adjusted to 40° C., and gradually transferred over the course of 1-3 hours into a solution of heptanes and tert-butyl methyl ether (4:1, 14 volumes) maintained at 45° C. During the transfer, α-6-mPEG6-O-hydroxycodone phosphate precipitated from the combined streams. The resulting slurry was cooled to 20° C. and agitation was ceased, permitting the solids to settle. The supernate was decanted, and heptanes (6 volumes) were added to the solids. The solids were slurried for at least one hour at 30° C., after which the slurry was cooled to 20° C. Again agitation was ceased, the solids were allowed to settle, and the supernate was decanted. Fresh heptanes were added to the solids, which were again slurried for at least one hour at 30° C. The slurry was cooled to 20° C., filtered, and washed with fresh heptanes (2 volumes). […] The solid form prepared according to this Example has a melting point in the range of about 175-177° C. […]

[5] = listed as Alpha 6-mPEG6-O-Hydroxycodone Phosphate Salt

SMILES	Water Vapor Sorption (gain between 0-50% RH) [1]	Particle Size Distribution DV[10] [2]	Particle Size Distribution DV[50] [2]	Particle Size Distribution DV[90] [2]	Bulk Density ([3]; phosphate salt)	Hausner ratio ([3]; phosphate salt)	Tap Density ([3]; phosphate salt)	nature of the isolated solid [4]	Bulk Density [3, 5]	Hausner ratio [3, 5]	Tap Density [3, 5]
COCCOCCOCCOCCOCCOCCO[C@H]1CC[C@@]2(O)[C@H]3Cc4ccc(OC)c5c4[C@@]2(CCN3C)[C@H]1O5.O=P(O)(O)O [520 g Lot, α-6-mPEG6-O-hydroxycodone phosphate salt]	4.2%	DV[10] = 7 μm	DV[50] = 47 μm	DV[90] = 93 μm	0.39 g/mL	1.25	0.49 g/mL	–	–	–	–
COCCOCCOCCOCCOCCOCCO[C@H]1CC[C@@]2(O)[C@H]3Cc4ccc(OC)c5c4[C@@]2(CCN3C)[C@H]1O5.O=C(O)C(O)C(O)C(=O)O [α-6-mPEG6-O-hydroxycodone D-tartrate]	–	–	–	–	–	–	–	deliquescent white powder	–	–	–
COCCOCCOCCOCCOCCOCCO[C@H]1CC[C@@]2(O)[C@H]3Cc4ccc(OC)c5c4[C@@]2(CCN3C)[C@H]1O5.O=P(O)(O)O [30 g Lot, α-6-mPEG6-O-hydroxycodone phosphate salt]	4.2%	DV[10] = 7 μm	DV[50] = 47 μm	DV[90] = 92 μm	0.33 g/mL	1.18	0.39 g/mL	–	–	–	–
COCCOCCOCCOCCOCCOCCO[C@H]1CC[C@@]2(O)[C@H]3Cc4ccc(OC)c5c4[C@@]2(CCN3C)[C@H]1O5.O=P(O)(O)O [α-6-mPEG6-O-hydroxycodone phosphate]	–	–	–	–	–	–	–	slightly waxy, hygroscopic powder	0.3276 g/mL	1.20	0.3931 g/mL
COCCOCCOCCOCCOCCOCCO[C@H]1CC[C@@]2(O)[C@H]3Cc4ccc(OC)c5c4[C@@]2(CCN3C)[C@H]1O5.O=P(O)(O)O [100 g Lot, α-6-mPEG6-O-hydroxycodone phosphate salt]	4.1%	DV[10] = 9 μm	DV[50] = 53 μm	DV[90] = 109 μm	0.37 g/mL	1.30	0.48 g/mL	–	–	–	–
